Assay results published in US10294202B2, “Pyrrolidinones as herbicides” (FMC Corporation, priority 2013, dated 2019).

Columns and labels:
[1] = test system: barnyardgrass; test: Test A pre-/postemergence herbicide test; assay type: in vivo, Echinochloa crus-galli
Summary of the method: (§1)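 Seeds in loam–sand blend received preemergence directed soil spray; separately, plants 2–10 cm at one- to two-leaf stage received postemergence spray, both with test chemicals in non-phytotoxic solvent with surfactant. After ~10 days in greenhouse, injury rated visually against untreated controls, 0 (no effect) to 100 (complete control).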

[2] = test system: kochia; test: Test A pre-/postemergence herbicide test; assay type: in vivo, Kochia scoparia
Summary of the method: as §1

[3] = test system: ragweed; test: Test A pre-/postemergence herbicide test; assay type: in vivo, Ambrosia elatior
Summary of the method: as §1

[4] = test system: ryegrass, Italian; test: Test A pre-/postemergence herbicide test; assay type: in vivo, Lolium multiflorum
Summary of the method: as §1

[5] = test system: giant foxtail; test: Test A pre-/postemergence herbicide test; assay type: in vivo, Setaria faberii
Summary of the method: as §1

[6] = test system: pigweed; test: Test A pre-/postemergence herbicide test; assay type: in vivo, Amaranthus retroflexus
Summary of the method: as §1

[7] = test system: wheat; test: Test A pre-/postemergence herbicide test; assay type: in vivo, Triticum aestivum; conditions: Postemergence
Summary of the method: as §1

[8] = test system: corn; test: Test A pre-/postemergence herbicide test; assay type: in vivo, Zea mays; conditions: Postemergence
Summary of the method: as §1

[9] = test system: blackgrass; test: Test A postemergence herbicide test; assay type: in vivo, Alopecurus myosuroides
Summary of the method: (§2)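 Injury was rated visually about 10 days after treatment on a 0 (no effect) to 100 (complete control) scale, compared with untreated plants. Test chemicals were sprayed postemergence onto greenhouse plants 2–10 cm high at one to two leaves, grown in a loam–sand blend.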

[10] = test system: galium; test: Test A postemergence herbicide test; assay type: in vivo, Galium aparine
Summary of the method: as §2

[11] = test system: rice; test: Test B flooded paddy test; assay type: in vivo, Oryza sativa; conditions: 500 g ai/ha, Flood; scale of 0 to 100 where 0 is no effect and 100 is complete control
Summary of the method: (§3)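 In-water application to pots flooded 3 cm deep, plants at 2-leaf stage. Held in greenhouse 13–15 days at constant flood depth. Scored 0–100 by eye against controls.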

[12] = test system: sedge, umbrella; test: Test B flooded paddy test; assay type: in vivo, Cyperus difformis; conditions: 500 g ai/ha, Flood; scale of 0 to 100 where 0 is no effect and 100 is complete control
Summary of the method: as §3

[13] = test system: ducksalad; test: Test B flooded paddy test; assay type: in vivo, Heteranthera limosa; conditions: 500 g ai/ha, Flood; scale of 0 to 100 where 0 is no effect and 100 is complete control
Summary of the method: as §3

[14] = test system: barnyardgrass; test: Test B flooded paddy test; assay type: in vivo, Echinochloa crus-galli; conditions: 500 g ai/ha, Flood; scale of 0 to 100 where 0 is no effect and 100 is complete control
Summary of the method: as §3

[15] = Postemergence, 125 g ai/ha, visual rating on 0 to 100 scale (0 no effect, 100 complete control), approx. 10 days
[16] = Postemergence, 500 g ai/ha, 0 to 100 scale (0 no effect, 100 complete control)
[17] = Preemergence, 125 g ai/ha, 0 to 100 scale where 0 is no effect and 100 is complete control
[18] = Preemergence, 500 g ai/ha, visual rating on 0 to 100 scale (0 no effect, 100 complete control)
[19] = 125 g ai/ha, visual rating on 0 to 100 scale (0 no effect, 100 complete control), approx. 10 days
[20] = 500 g ai/ha, 0 to 100 scale (0 no effect, 100 complete control)

Compound | Plant response rating, Barnyardgrass [1, 15] | Plant response rating, Barnyardgrass [1, 16] | Plant response rating, Barnyardgrass [1, 17] | Barnyardgrass plant response rating [1, 18] | Plant response rating, Kochia [2, 15] | Plant response rating, Kochia [2, 16] | Plant response rating, Kochia [2, 17] | Kochia plant response rating [2, 18] | Plant response rating, Ragweed [3, 15] | Plant response rating, Ragweed [3, 16] | Plant response rating, Ragweed [3, 17] | Ragweed plant response rating [3, 18] | Plant response rating, Ryegrass, Italian [4, 15] | Plant response rating, Ryegrass, Italian [4, 16] | Plant response rating, Ryegrass, Italian [4, 17] | Ryegrass, Italian plant response rating [4, 18] | Plant response rating, Foxtail, Giant [5, 15] | Plant response rating, Foxtail, Giant [5, 16] | Plant response rating, Foxtail, Giant [5, 17] | Foxtail, Giant plant response rating [5, 18] | also measured
O=C1NCC(c2ccc(SC(F)(F)F)cc2)C1C(=O)Nc1ccc(F)c(F)c1F (stereo not drawn) [Compound 322] | 0 | 60 | 0 | 40 | 0 | 0 | 0 | 0 | 0 | 0 | 0 | 0 | 0 | 0 | 0 | 0 | 0 | 60 | 0 | 70 | Plant response rating, Pigweed [6, 15]: 0; Plant response rating, Pigweed [6, 16]: 0; Plant response rating, Pigweed [6, 17]: 0; Pigweed plant response rating [6, 18]: 0; Plant response rating, Wheat [7, 19]: 0; Plant response rating, Wheat [7, 20]: 0; Plant response rating, Corn [8, 19]: 0; Plant response rating, Corn [8, 20]: 20; Plant response rating, Blackgrass [9, 19]: 0; Plant response rating, Blackgrass [9, 20]: 0; Plant response rating, Galium [10, 19]: 0; Plant response rating, Galium [10, 20]: 0; Plant response rating, Rice [11]: 0; Plant response rating, Sedge, Umbrella [12]: 0; Plant response rating, Ducksalad [13]: 100; Plant response rating, Barnyardgrass [14]: 0
O=C1NCC(c2cccc(-n3ccc(C(F)(F)F)n3)c2)C1C(=O)Nc1cccc(F)c1F (stereo not drawn) [Compound 326] | 0 | 20 | 0 | 30 | 0 | 30 | 40 | 50 | 0 | 0 | 0 | 0 | 0 | 0 | 0 | 40 | 20 | 50 | 50 | 60 | Plant response rating, Pigweed [6, 15]: 0; Plant response rating, Pigweed [6, 16]: 0; Plant response rating, Pigweed [6, 17]: 0; Pigweed plant response rating [6, 18]: 0; Plant response rating, Wheat [7, 19]: 0; Plant response rating, Wheat [7, 20]: 0; Plant response rating, Corn [8, 19]: 0; Plant response rating, Corn [8, 20]: 0; Plant response rating, Blackgrass [9, 19]: 0; Plant response rating, Blackgrass [9, 20]: 0; Plant response rating, Galium [10, 19]: 0; Plant response rating, Galium [10, 20]: 0; Plant response rating, Rice [11]: 0; Plant response rating, Sedge, Umbrella [12]: 0; Plant response rating, Ducksalad [13]: 0; Plant response rating, Barnyardgrass [14]: 0
O=C1NCC(c2cccc(I)c2)C1C(=O)Nc1cccc(F)c1F (stereo not drawn) [Compound 327] | 40 | 80 | 70 | 80 | 30 | 40 | 30 | 70 | 0 | 20 | 20 | 30 | 20 | 20 | 40 | 40 | 40 | 80 | 80 | 90 | Plant response rating, Pigweed [6, 15]: 0; Plant response rating, Pigweed [6, 16]: 20; Plant response rating, Pigweed [6, 17]: 0; Pigweed plant response rating [6, 18]: 20; Plant response rating, Wheat [7, 19]: 0; Plant response rating, Wheat [7, 20]: 20; Plant response rating, Corn [8, 19]: 0; Plant response rating, Corn [8, 20]: 30; Plant response rating, Blackgrass [9, 19]: 30; Plant response rating, Blackgrass [9, 20]: 40; Plant response rating, Galium [10, 19]: 40; Plant response rating, Galium [10, 20]: 60; Plant response rating, Rice [11]: 0; Plant response rating, Sedge, Umbrella [12]: 0; Plant response rating, Ducksalad [13]: 60; Plant response rating, Barnyardgrass [14]: 0
O=C1NCC(c2cccc(Oc3ccccc3)c2)C1C(=O)Nc1ccc(F)cc1F (stereo not drawn) [Compound 331] | 20 | 70 | 20 | 80 | 0 | 20 | 0 | 0 | 0 | 0 | 0 | 20 | 0 | 0 | 0 | 20 | 20 | 80 | 50 | 90 | Plant response rating, Pigweed [6, 15]: 0; Plant response rating, Pigweed [6, 16]: 0; Plant response rating, Pigweed [6, 17]: 0; Pigweed plant response rating [6, 18]: 20; Plant response rating, Wheat [7, 19]: 0; Plant response rating, Wheat [7, 20]: 0; Plant response rating, Corn [8, 19]: 0; Plant response rating, Corn [8, 20]: 0; Plant response rating, Blackgrass [9, 19]: 0; Plant response rating, Blackgrass [9, 20]: 30; Plant response rating, Galium [10, 19]: 0; Plant response rating, Galium [10, 20]: 30; Plant response rating, Rice [11]: 0; Plant response rating, Sedge, Umbrella [12]: 0; Plant response rating, Ducksalad [13]: 65; Plant response rating, Barnyardgrass [14]: 40
